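Compound exposure: 48 hours, 5 concentrations, 96-well plates. Here, GI50 denotes the concentration required for 50% inhibition of growth.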 The source made the active and inactive calls. Rule as the data show it: active = GI50 up to about 1.1 µM and inactive = higher.
How the values were obtained:
Test in all cases: inhibition of tumour cell growth, NCI panel, 48 h
UACC-257 = test system: UACC-257
U-251 = test system: U-251
SF-539 = test system: SF-539
SF-268 = test system: SF-268
HCT-15 = test system: HCT-15
SNB-19 = test system: SNB-19
SR = test system: SR
A549 = test system: A549
EKVX = test system: EKVX
SK-MEL-28 = test system: SK-MEL-28
NCI/ADR-RES = test system: NCI/ADR-RES
MOLT-4 = test system: MOLT-4
CCRF-CEM = test system: CCRF-CEM
TK-10 = test system: TK-10
HCC 2998 = test system: HCC 2998
KM12 = test system: KM12
Malme-3M = test system: Malme-3M
NCI-H460 = test system: NCI-H460
NCI-H226 = test system: NCI-H226
A498 = test system: A498

Measured: GI50

CCc1nnc(CC)n1-n1c(Cc2ccccc2)n[nH]c1=O
> 100 µM: HCT-15
inactive: UACC-257 > 100 µM | U-251 > 100 µM | SF-539 > 100 µM | SF-268 > 100 µM | SNB-19 > 100 µM | SR > 100 µM | A549 > 100 µM | EKVX > 100 µM | SK-MEL-28 > 100 µM | NCI/ADR-RES > 100 µM | MOLT-4 > 100 µM | CCRF-CEM > 100 µM | TK-10 > 100 µM | HCC 2998 > 100 µM | KM12 > 100 µM

COC(=O)c1ccccc1CC1Cc2cccc(C)c2C1=O (stereo not drawn)
24 µM: HCT-15
inactive: UACC-257 34 µM | U-251 33 µM | Malme-3M 19.2 µM | SF-539 89.7 µM | SF-268 37.8 µM | SNB-19 52.5 µM | A549 51.8 µM | EKVX 11.7 µM | SK-MEL-28 32.5 µM | NCI/ADR-RES 32.7 µM | MOLT-4 19.9 µM | CCRF-CEM 36.8 µM | TK-10 21.3 µM | NCI-H460 47.5 µM | NCI-H226 27 µM | HCC 2998 40.3 µM | KM12 27 µM

CC(C)OCC1CC(CC(=O)Nc2nncs2)C(=O)O1 (stereo not drawn)
inactive: UACC-257 > 100 µM | U-251 > 100 µM | SF-539 > 100 µM | SF-268 > 100 µM | SNB-19 > 100 µM | SR > 100 µM | A549 > 100 µM | EKVX > 100 µM | SK-MEL-28 > 100 µM | NCI/ADR-RES > 100 µM | MOLT-4 > 100 µM | CCRF-CEM > 100 µM | TK-10 > 100 µM | NCI-H460 > 100 µM | NCI-H226 > 100 µM | HCC 2998 > 100 µM | KM12 > 100 µM
> 100 µM: HCT-15

CSC(=N/C=C/c1ccccc1)SC
inactive: UACC-257 > 100 µM | U-251 > 100 µM | Malme-3M > 100 µM | SF-539 > 100 µM | SF-268 > 100 µM | A498 > 100 µM | SNB-19 > 100 µM | SR > 100 µM | A549 60.3 µM | EKVX > 100 µM | SK-MEL-28 > 100 µM | NCI/ADR-RES > 100 µM | MOLT-4 > 100 µM | CCRF-CEM 98.9 µM | NCI-H460 > 100 µM | NCI-H226 > 100 µM | KM12 > 100 µM
> 100 µM: HCT-15

Fc1ccc(Nc2nnc(-c3ccccn3)s2)cc1
inactive: UACC-257 > 100 µM | U-251 > 100 µM | Malme-3M > 100 µM | SF-539 > 100 µM | SF-268 > 100 µM | A498 > 100 µM | SNB-19 > 100 µM | A549 > 100 µM | EKVX > 100 µM | SK-MEL-28 > 100 µM | NCI/ADR-RES > 100 µM | MOLT-4 > 100 µM | CCRF-CEM > 100 µM | TK-10 > 100 µM | NCI-H460 > 100 µM | KM12 > 100 µM
> 100 µM: HCT-15

O=C1/C(=C/c2cccc(Oc3ccccc3)c2)N=C(c2ccccc2)N1c1nc2ccc(Sc3ccccc3)cc2[nH]1
inactive: UACC-257 29.4 µM | U-251 27.4 µM | Malme-3M 67.8 µM | SF-268 37.7 µM | A498 26.1 µM | SNB-19 35.5 µM | A549 42.1 µM | EKVX 44.1 µM | SK-MEL-28 41.3 µM | NCI/ADR-RES 20.5 µM | MOLT-4 33.7 µM | CCRF-CEM 24.6 µM | TK-10 25.2 µM | NCI-H460 23 µM | HCC 2998 13.3 µM | KM12 29.6 µM
28 µM: HCT-15

C=CCN(C(=O)OC(C)(C)C)[C@H](C)C(=O)N[C@@H](C)C(=O)OC
inactive: U-251 > 100 µM | Malme-3M > 100 µM | SF-539 > 100 µM | SF-268 > 100 µM | A498 > 100 µM | SNB-19 > 100 µM | SR > 100 µM | A549 > 100 µM | EKVX > 100 µM | SK-MEL-28 > 100 µM | NCI/ADR-RES > 100 µM | MOLT-4 > 100 µM | CCRF-CEM 36 µM | NCI-H226 > 100 µM | KM12 > 100 µM
> 100 µM: HCT-15

CN(C)C(=O)OC(Cn1cncn1)(Cn1cncn1)c1ccc(Cl)cc1Cl
> 100 µM: HCT-15
inactive: UACC-257 > 100 µM | U-251 > 100 µM | SF-539 > 100 µM | SF-268 > 100 µM | A498 > 100 µM | SNB-19 > 100 µM | A549 > 100 µM | EKVX > 100 µM | SK-MEL-28 > 100 µM | NCI/ADR-RES > 100 µM | MOLT-4 > 100 µM | CCRF-CEM > 100 µM | TK-10 > 100 µM | NCI-H460 > 100 µM | NCI-H226 > 100 µM | HCC 2998 > 100 µM | KM12 > 100 µM

Source: ChEMBL document CHEMBL1201862, “PubChem BioAssay data set” (2004)
